Legend:
[1] = system: Penicillium spp.; assay: Thermal fogging with eugenol of empty grain storage cells; Airtest trapping of Penicillium colonies on Petri dishes; details: for Penicillium contamination (number colonies/Petri dish) After treatment: Airtest 100 l, 10 days after treatment
Method: (§1) Six cells (noted ‘20’, ‘L’, ‘12’, ‘F’, ‘8’ and ‘I’) were studied. These are concrete cells with a conical bottom (bottom for completely emptying the cell and eliminating more readily the debris and dust before ensilaging the next harvest). The cells identified by a number have a capacity of 350 t, those identified by a letter have a capacity of 50 t. The level of contamination of the six cells was evaluated by trapping the contaminated spores or particles using an Airtest introduced into the cell via an access hatch located at the base of the cell.
(§2) The Petri dishes 90 mm in diameter, placed in the Airtest and constituting the trap, contained a Malt Agar+Triton medium; the addition of triton modifies the development of the fungal colonies, which remain compact and are easy to count. The volume of air passing through the Airtest was set at 100 I, except for one cell in which we tested 4 different volumes of air (10 l, 20 l, 40 l, 100 l). For each mode, three repetitions (3Petri dishes) were carried out.
(§3) Two types of trapping were carried out; atmospheric trapping and trapping on the […]. In fact, these walls have rough patches and can retain mould spores or infected particles. The Airtest was placed approximately 5 mm from the wall.
(§4) […]
(§5) The eugenol thermal fogging treatment was carried out on a platform on which the thermal fogging device was installed.
(§6) 4 l and 20 l of eugenol, respectively, were subjected to thermal fogging at 230° C. (for approximately ¾ h) in cell L (≈50 m^3) and in cell 12 (≈350 m^3).

[2] = system: Aspergillus spp.; assay: Thermal fogging with eugenol of empty grain storage cells; Airtest trapping of Aspergillus colonies on Petri dishes; details: for Aspergillus contamination (number colonies/Petri dish) After treatment: Airtest 100 l, 10 days after treatment
Method: as §1, §2, §3, §4, §5, §6

[3] = thermal fogging of eugenol in the cells, atmospheric and wall contamination

C=CCc1ccc(O)c(OC)c1 [eugenol]
Penicillium contamination (number colonies/Petri dish) After treatment ([1]; cell 12 (wheat, ≈350 m^3), 20 l eugenol thermal fogging at 230° C., atmosphere trapping, before treatment 1240): 400 number colonies/Petri dish | Penicillium contamination (number colonies/Petri dish) After treatment ([1]; cell 12 (wheat, ≈350 m^3), 20 l eugenol thermal fogging at 230° C., wall trapping, before treatment 1860): 207 number colonies/Petri dish | Penicillium contamination (number colonies/Petri dish) After treatment ([1]; cell L (wheat, ≈50 m^3), 4 l eugenol thermal fogging at 230° C., atmosphere trapping, before treatment 2650): 106 number colonies/Petri dish | Penicillium contamination (number colonies/Petri dish) After treatment ([1]; cell L (wheat, ≈50 m^3), 4 l eugenol thermal fogging at 230° C., wall trapping, before treatment 7500): 85 number colonies/Petri dish | level of Penicillium spp. contamination after treatment (in words) ([1]; cells L and 12, thermal fogging with eugenol at 230° C., atmospheric and wall contamination): clear decrease | effectiveness against Penicillium spp. present in the grain storage cells (in words) [1, 3]: very effective | Aspergillus contamination (number colonies/Petri dish) After treatment ([2]; cell 12 (wheat, ≈350 m^3), 20 l eugenol thermal fogging at 230° C., atmosphere trapping, before treatment 77): 0 number colonies/Petri dish | Aspergillus contamination (number colonies/Petri dish) After treatment ([2]; cell 12 (wheat, ≈350 m^3), 20 l eugenol thermal fogging at 230° C., wall trapping, before treatment 85): 0 number colonies/Petri dish | Aspergillus spp. contamination after treatment (in words) ([2]; cell 12, 20 l eugenol thermal fogging at 230° C.): completely controlled | Aspergillus contamination (number colonies/Petri dish) After treatment ([2]; cell L (wheat, ≈50 m^3), 4 l eugenol thermal fogging at 230° C., atmosphere trapping, before treatment 0): 0 number colonies/Petri dish | Aspergillus contamination (number colonies/Petri dish) After treatment ([2]; cell L (wheat, ≈50 m^3), 4 l eugenol thermal fogging at 230° C., wall trapping, before treatment 0): 0 number colonies/Petri dish | effectiveness against Aspergillus spp. present in the grain storage cells (in words) [2, 3]: very effective

From patent publication US20080175926A1, “Process for treating storage reservoirs contaminated with mycotoxins” (priority 2006, published 2008)
